Assay results as given in a melting point compilation (Tetko et al.; mined from patent text by program, amines drawn as free bases though some values may be those of a salt).

Compound | melting point [°C]
Cc1cnc(N2CCN(c3ccc([N+](=O)[O-])cc3)CC2)n1C | 204 to 205
CNC(=S)NCCS(=O)Cc1nc[nH]c1C (stereo not given) | 139 to 140
CCC1OC(=O)CC(O)C(C)C(OC2OC(C)CC(N(C)C)C2O)C(CC=O)CC(C)C(=O)C=CC2(C)OC2C1C (stereo not given) | 128 to 130
CCS(=O)(=O)CCc1ccc(C(=O)c2ccc(Cl)cc2)cc1 | 117 to 118
CCNC(=O)OCc1cnc(C)c(OC(=O)NCC)c1 | 121 to 122
COC(=O)c1cc(-c2ccc(Cl)cc2)[nH]c1Cl | 228 to 232
CC(C)(Oc1ccc(C#N)cc1)C(O)=Cc1ccncn1 | 115 to 117
CN(C)C=CC(=O)c1ccc(F)cc1 | 83.5 to 84
CCCCCCCCOc1ccc2cc(C(=O)O)ccc2c1 | 150 to 153
CNC(=S)Nc1ccc(C)cn1 | 161
CC(=O)NC1=CC(C)(C)Oc2ccc(C#N)cc21 | 146 to 147
O=C1NCN(c2ccc(Cl)cc2)C12CCN(Cc1ccnc(-c3ccc(Cl)cc3)c1)CC2 | 223 to 225
COC(C)=CC(=O)NC1CCCC1 | 94
COC1=C(OC)C(=O)C(CCCCCCCCCC(=O)N[C@@H](CCCCN)C(=O)O)=C(C)C1=O | 107
CN1CCC2=C(CCCC2)C1Cc1ccc(O)cc1 (single isomer, unassigned; (-)) | 119 to 120
O=C(CN1CCCCC1)Nc1ccc(NC(=O)Nc2ccc(N(CCCl)CCCl)cc2)cc1 | 227 to 229
COC(=O)Nc1cc(Oc2ccc3c(ccn3C(=O)Nc3ccc(CN4CCN(C)CC4)c(C(F)(F)F)c3)c2)ncn1 | 138 to 140
CCCOC(=O)c1cc(-n2c(OC)nc(C(F)(F)F)cc2=O)c(F)cc1Cl | 55 to 57
C[C@H](NC(=O)OCc1ccccc1)C(=O)N1CCC[C@H]1C(=O)NC1CCCCCCC1 | 94 to 96
Fc1ccccc1N1CCN(c2ccc(Cl)nn2)CC1 | 148
C[C@@H]1CN(C(=O)OC(C)(C)C)C[C@H]2Cc3cc(F)cnc3N21 | 56.6 to 58.4

Compound | melting point [°C]
N=C(Nc1ccc(C2CCCC2)c(CN2CCC[C@H]2CO)c1)c1cccs1 | 132 to 133
OC(c1ccc(F)cc1)(c1ncc[nH]1)c1ccc(Cl)cc1Cl (stereo not given) | 194
CCCCc1nc2cccc(C(=O)OC)c2[nH]1 | 85
N#Cc1ccc(O)cc1C(N)=O | 268 to 270
CCc1nc2c(N)nc3c(c2n1CCCCS(=O)(=O)NC)CCCC3 | 166 to 170
CC(C)(C)c1cc(CCC(=O)NCCNc2c(Cl)c(Cl)nc(Cl)c2C#N)cc(C(C)(C)C)c1O | 185 to 189
COC(=O)C1=CC(=O)CCC1c1cccs1 (racemic) | 69
O=C(O)C(Oc1ccc(N2CCCCC2)cc1)c1cccc(Cl)c1 (stereo not given) | 149 to 151
CCOC(=O)c1ccc(NC(=O)OC(C)(C)C)cc1 | 149 to 150
C=C1CCC2C3CCC4CC(O)CCC4(C)C3C(N)CC12C (stereo not given) | 144 to 149
C=c1oc(=O)c(=O)oc1=C | 44
O=C(O)CSC1c2cccc(O)c2C(=O)c2c(O)cccc21 | 151 to 152
Cc1nc2nc(/C=C3/C(=O)N4C(C(=O)O)=CS[C@H]34)nn2c2c1CCCC2 | 250
CC(C)(C)OC(=O)c1ccc(C=NON)cc1 | 153 to 155
CC(=O)N1CCC2(CC1)C(=O)NC(=O)N2c1ccc(C)cc1 | 295 to 297
CCOC=C(C(=O)O)C(=O)C1CC1 | 108 to 113
CCOC1CC2(C)C(CCC3C4CC5OC5C4(C)CC(N(C)C)C32)CC1O (stereo not given) | 149 to 151
Nc1nc2c(ncn2/C=C2/CC2(CO)CO)c(=O)[nH]1 | > 300
COc1ccc(N2CCN(c3c(C)c(C)c4c(c3C)CC(C)(CN3CCOCC3)O4)CC2)cc1 (stereo not given) | 137 to 142
CC(=O)NC(C)(C)c1ccc(CN2CCN(c3ncccn3)CC2)cc1 | 137 to 138
COC(=O)[C@@H]1NC(=O)[C@@H]1NC(=O)OC(C)(C)C (relative stereo) | 140 to 144

Now from value to molecule:

melting point [°C] | Compound
199 to 200 | O=C(O)CCc1oc(-c2ccc3c(c2)OCO3)nc1-c1ccc(Cl)cc1
149 to 151 | FC(F)(F)c1ccccc1-c1ccnc2ncnn12
207 to 210 | COCc1ncccc1CN(CCn1cc(C)c2occc2c1=O)Cc1ccc2c(c1)NC(=O)C(C)(C)C(=O)N2CC(C)C
150 to 152 | O=C(OC1CCc2c(c3ccccc3n2Cc2ccc(Cl)cc2)C1)c1ccccc1 (stereo not given)
98 to 99 | CCOC(=O)c1ccc(-c2nn(Cc3ccccc3)c3ccccc23)o1
> 275 | CC(=O)c1ccc(-n2c(-c3cc(-c4ccccc4)c(N4CCOCC4)s3)nc3ccccc3c2=O)cc1
98 to 101 | CCCc1c(OCC(O)COc2cccc(NC(=O)C(=O)OCC)c2)ccc(C(C)=O)c1O (stereo not given)
172 | O=C(O)c1ccc(-c2nc(NCc3ccc4c(c3)OCO4)c3cc([N+](=O)[O-])sc3n2)cc1
88 to 89 | COc1ccc(COc2cccc(C(C)O)c2OCc2ccc(OC)cc2)cc1 (stereo not given)
192 to 193 | Cn1nc(-c2ccccc2)c(CNc2ccccc2C(=O)O)c1Cl
157 to 159 | CCOC(=O)c1cn(-c2nc(C)ns2)c2cc(F)c(F)cc2c1=O
158 to 160 | Cc1ccc(N2C(=O)C3=C(CCCC3)C2=O)c2c1OC(C)C2 (stereo not given)
235 to 238 | COc1ccc(-c2cc3cc(F)c(F)cc3[nH]2)cc1NS(=O)(=O)c1cccc(N)c1
165 to 166 | O=[N+]([O-])c1cc(I)ccc1Nc1cccc(-n2cccn2)c1
145 to 146 | COC(=O)c1cc(OC)c(-n2cccc2)c(OC)c1
119 to 126 | COc1cc(C(=O)NS(=O)(=O)c2ccccc2C)ccc1Cc1cn(C)c2ccc(CC(C)C(=O)NCC3CCCC3)cc12 (stereo not given)
> 300 | COC(=O)c1ccc(-c2cc3c(Nc4cccc(Cl)c4)ncnc3[nH]2)cc1
98 to 100 | O=C(CN1C(=O)C2(COc3ccc(-c4cccnc4)cc32)c2ccccc21)Nc1ccccc1F (stereo not given)
191 to 193 | COc1cc(N(C(=O)COCCOCC(N)=O)c2cc(OC)cc3ccc(C)nc23)c2nc(C)ccc2c1
201 to 203 | CCCCn1c(-c2ccccc2)c(Cc2c(O)ccc3ccccc23)c(=O)[nH]c1=S

melting point [°C] | Compound
200 to 201 | COc1cc2c(cc1OC)CN(CCc1ccc(NC(=O)c3cccc4c(=O)c5cccc(OC)c5[nH]c34)c(C)c1)CC2
138 to 140 | N#Cc1n[nH]c2ccccc12
131 to 133 | OC(C1=NCC2CCCCN12)(c1ccccc1)c1ccccc1 (stereo not given)
114 to 115 | O=C1CCN(CC=Cc2ccccc2)CC1C(c1ccccc1)c1ccccc1 (stereo not given)
161 to 163 | O=C1NC(=O)C(Cc2ccc(OCCON=Cc3ccccn3)cc2)S1 (stereo not given)
155 to 170 | COc1ccc2c(c1)C(c1ccccc1)C(=O)NCC2 (stereo not given)
51 to 52 | Nc1ccc(Cl)cc1C(=O)c1ccccc1O
105 to 106 | CCOC(=O)c1cnn2c1c(Cl)nc1ccccc12
205 to 208 | COC(=O)CC1Sc2ccc([N+](=O)[O-])cc2CN(CCc2ccccc2)C1=O (stereo not given)
139 to 141 | O=C1N(Cc2ccccc2)c2cc(Cl)ccc2N=C2CCCC12Cc1ccccc1 (stereo not given)
159 | Cc1ccc2c(c1)[nH]c(=O)n2CCO
220 | COc1c(Cl)cc(C(=O)Nc2ccc(F)cc2)c(Nc2ccccc2)c1Cl
103 to 105 | CCCc1cc(Cl)c2oc(C(=O)c3ccc(OC)cc3)c(C)c2c1O
216 to 218 | Cn1cnc(COc2nn3c(-c4ccccc4F)nnc3cc2-c2ccsc2)n1
166 to 167 | CCC(=O)Nc1cc(-c2c(-c3ccc(F)c(C)c3)nc3cccnn23)ccn1
168 to 169 | Cc1cc(CCC(=O)OC(C)(C)C)nc(-c2nc(=O)c3ccccc3s2)c1
152 to 154 | C/C(=C\c1ccc(OCC(=O)O)cc1)c1ccc2c(c1)C(C)(C)CCC2(C)C
63 to 65 | Oc1cc(Cl)ccc1Oc1cccc(Br)c1
101 | CC1CCC(C2=C(O)C(=O)c3ccccc3C2=O)CC1 (stereo not given)
170 to 172 | Cc1ccc2c(C(=O)NCCc3ccccc3)c(Cl)ccc2n1

melting point [°C] | Compound
146 | COc1ccc(C=Nc2ccccc2SCc2ncon2)cc1OC
248 to 249 | Cc1nc2c(c3c1[nH]c1ccccc13)C(=O)CC(C(C)C)C2 (stereo not given)
212 to 215 | CC(=O)NC(CC(=O)c1cc(Cl)ccc1N)C(=O)NC(CO)c1ccccc1 (stereo not given)
150 | CCC(=O)Oc1cc(-c2nc3cc(F)ccc3s2)ccc1OC
137 to 138 | CCOC(=O)COc1c(F)cc(S(=O)CCNS(=O)(=O)c2ccc(Cl)cc2)cc1F (stereo not given)
143 | COc1cc(-c2nc3ccc(OCCN4CCCC4)cc3n2Cc2ccccc2C(F)(F)F)cc(OC)c1OC
206 to 209 | COc1cc(Nc2c(C#N)cnc3cc(-c4csc(CN5CCN(C)CC5)c4)ccc23)c(Cl)cc1Cl
155 | Oc1ccc2c(c1)CCCC(c1ccccc1)=C2c1ccc(OCCCCSCc2ccccn2)cc1
321 | Cn1c2ccc(-c3nnn[nH]3)cc2c(=O)c2cccnc21
96 to 100 | CCOC(=O)Cc1c([N+](=O)[O-])cc(O)c2ccccc12
62 to 66 | COc1ccc2cccc(C#N)c2c1
201 to 203 | Cc1cc(/C=[N+](\[O-])C(C)C)cc(C)c1O
161 to 162 | COc1cc(C(C)C)c2c(c1)S(=O)(=O)N(COc1cc(C(F)(F)F)nn1-c1ccncc1)C2=O
178 to 179 | Cc1cc2c(-c3ccccc3)c(C=O)n(C)c(=O)c2cc1C
82 to 83 | COc1ccc(C(C)(C)C)cc1C=Cc1ccc(C=O)cc1
115 to 116 | CN(C)C=C(C(=O)c1ccccc1)c1ccc(F)cc1
216 to 218 | O=C1COc2ccc(C3=Nn4cnnc4SC3c3ccccn3)cc2N1 (stereo not given)
146 to 150 | O=Cc1cccc(/C=C/c2ccc3ccc(Cl)cc3n2)c1
